Source: patent US20240269139A1, “COMPOUNDS FOR TARGETED PROTEIN DEGRADATION OF KINASES” (DANA-FARBER CANCER INSTITUTE, INC., priority 2020, published 2024)
Where two headings read alike, the source gives them in different places.

How the values were obtained:
Assay type in all cases: cell-based
[1] = target: protein kinases (human kinome) (Homo sapiens, UniProt P00519)
[2] = target: protein kinases (human kinome) (Homo sapiens, UniProt P53350)
[3] = target: T1, protein kinases (human kinome) (Homo sapiens, UniProt P11387); conditions: TOP1 P11387
T1 sequence (P11387 1-765): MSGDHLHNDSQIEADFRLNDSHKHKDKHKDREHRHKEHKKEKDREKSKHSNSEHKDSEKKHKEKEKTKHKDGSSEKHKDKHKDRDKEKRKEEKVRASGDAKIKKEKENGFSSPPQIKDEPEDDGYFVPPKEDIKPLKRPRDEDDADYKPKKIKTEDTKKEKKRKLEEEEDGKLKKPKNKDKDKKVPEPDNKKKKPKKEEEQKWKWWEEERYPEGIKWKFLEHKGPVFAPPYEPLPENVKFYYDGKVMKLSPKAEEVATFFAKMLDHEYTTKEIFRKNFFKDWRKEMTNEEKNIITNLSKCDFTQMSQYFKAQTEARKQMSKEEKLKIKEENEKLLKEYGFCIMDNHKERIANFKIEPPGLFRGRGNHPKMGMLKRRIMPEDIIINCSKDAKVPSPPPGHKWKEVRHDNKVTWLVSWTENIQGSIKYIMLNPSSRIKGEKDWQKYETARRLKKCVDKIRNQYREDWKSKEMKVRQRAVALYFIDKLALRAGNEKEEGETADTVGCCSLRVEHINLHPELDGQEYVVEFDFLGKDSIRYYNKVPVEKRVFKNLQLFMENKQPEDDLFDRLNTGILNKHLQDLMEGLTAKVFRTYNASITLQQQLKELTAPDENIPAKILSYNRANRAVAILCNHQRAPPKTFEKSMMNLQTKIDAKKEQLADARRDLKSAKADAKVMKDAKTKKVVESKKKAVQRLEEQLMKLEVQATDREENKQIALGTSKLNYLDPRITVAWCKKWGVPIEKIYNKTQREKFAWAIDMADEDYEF

[4] = target: T2, protein kinases (human kinome) (Homo sapiens, UniProt Q9H8X2); conditions: IPPK (Q9H8X2)
T2 sequence (Q9H8X2 1-491): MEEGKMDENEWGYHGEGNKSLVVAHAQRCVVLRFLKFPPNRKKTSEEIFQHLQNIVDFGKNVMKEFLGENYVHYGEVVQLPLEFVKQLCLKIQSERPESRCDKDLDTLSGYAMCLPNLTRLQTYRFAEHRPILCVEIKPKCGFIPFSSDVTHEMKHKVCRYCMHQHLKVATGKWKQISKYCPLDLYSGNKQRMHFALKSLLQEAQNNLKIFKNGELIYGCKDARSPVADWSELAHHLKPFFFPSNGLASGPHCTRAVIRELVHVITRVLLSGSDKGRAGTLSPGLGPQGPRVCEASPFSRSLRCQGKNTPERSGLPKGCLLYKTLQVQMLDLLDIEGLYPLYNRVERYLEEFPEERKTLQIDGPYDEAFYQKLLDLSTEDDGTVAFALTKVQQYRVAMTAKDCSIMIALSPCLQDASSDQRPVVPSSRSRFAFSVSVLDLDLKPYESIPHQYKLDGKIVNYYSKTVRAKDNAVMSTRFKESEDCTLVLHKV

[5] = target: T3, protein kinases (human kinome) (Homo sapiens, UniProt Q8IVH8); conditions: for logFC: MAP4K3 Q8IVH8; for logFC MAP4K3: MAP4K3 Q81VH8
T3 sequence (Q8IVH8 1-894): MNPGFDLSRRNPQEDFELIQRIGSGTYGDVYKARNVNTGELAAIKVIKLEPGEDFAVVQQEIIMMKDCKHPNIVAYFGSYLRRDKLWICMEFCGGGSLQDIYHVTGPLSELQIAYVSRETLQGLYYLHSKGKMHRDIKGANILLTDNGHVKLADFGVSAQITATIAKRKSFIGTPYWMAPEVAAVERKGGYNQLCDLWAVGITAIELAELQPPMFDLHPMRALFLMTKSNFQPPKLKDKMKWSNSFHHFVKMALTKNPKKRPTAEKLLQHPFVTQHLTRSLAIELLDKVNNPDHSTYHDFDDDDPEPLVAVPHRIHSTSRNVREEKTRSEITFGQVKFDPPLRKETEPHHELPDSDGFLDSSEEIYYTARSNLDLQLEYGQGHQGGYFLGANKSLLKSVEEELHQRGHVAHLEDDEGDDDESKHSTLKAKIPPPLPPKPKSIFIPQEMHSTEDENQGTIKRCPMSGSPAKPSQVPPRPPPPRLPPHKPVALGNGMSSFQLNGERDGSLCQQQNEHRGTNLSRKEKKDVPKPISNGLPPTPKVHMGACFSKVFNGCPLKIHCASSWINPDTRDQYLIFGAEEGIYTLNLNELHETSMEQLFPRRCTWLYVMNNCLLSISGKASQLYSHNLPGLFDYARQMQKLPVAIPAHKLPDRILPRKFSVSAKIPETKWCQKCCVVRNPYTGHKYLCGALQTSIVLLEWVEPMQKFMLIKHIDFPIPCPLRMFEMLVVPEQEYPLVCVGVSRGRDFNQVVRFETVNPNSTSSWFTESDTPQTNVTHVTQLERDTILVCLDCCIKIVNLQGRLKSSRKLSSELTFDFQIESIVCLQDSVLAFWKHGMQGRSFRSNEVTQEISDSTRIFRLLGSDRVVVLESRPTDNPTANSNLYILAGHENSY

[6] = PLK1 P53350, experiment wp133, 1 hr
[7] = PLK1 P53350, experiment wp133, 2 hr
[8] = PLK1 P53350, experiment wp133, 4 hr

Chain of protein kinases (human kinome) (Homo sapiens, UniProt P53350) (P53350 whole entry): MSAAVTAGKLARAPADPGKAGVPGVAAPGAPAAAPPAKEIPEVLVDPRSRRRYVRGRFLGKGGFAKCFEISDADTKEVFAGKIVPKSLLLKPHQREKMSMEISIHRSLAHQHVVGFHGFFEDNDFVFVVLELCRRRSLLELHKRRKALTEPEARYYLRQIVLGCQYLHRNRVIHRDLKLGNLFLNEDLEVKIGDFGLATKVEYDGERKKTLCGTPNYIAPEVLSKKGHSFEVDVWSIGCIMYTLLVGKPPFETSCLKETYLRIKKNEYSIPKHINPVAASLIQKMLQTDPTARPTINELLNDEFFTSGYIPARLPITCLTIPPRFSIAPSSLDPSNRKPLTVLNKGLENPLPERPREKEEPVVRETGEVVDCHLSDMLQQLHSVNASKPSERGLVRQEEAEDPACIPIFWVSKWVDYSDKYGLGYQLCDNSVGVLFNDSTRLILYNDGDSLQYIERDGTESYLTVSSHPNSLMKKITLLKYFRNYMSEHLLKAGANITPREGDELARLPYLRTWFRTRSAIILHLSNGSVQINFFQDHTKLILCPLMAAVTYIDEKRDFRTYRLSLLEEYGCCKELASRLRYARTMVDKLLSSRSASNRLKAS
Chain of protein kinases (human kinome) (Homo sapiens, UniProt P00519) (P00519 whole entry): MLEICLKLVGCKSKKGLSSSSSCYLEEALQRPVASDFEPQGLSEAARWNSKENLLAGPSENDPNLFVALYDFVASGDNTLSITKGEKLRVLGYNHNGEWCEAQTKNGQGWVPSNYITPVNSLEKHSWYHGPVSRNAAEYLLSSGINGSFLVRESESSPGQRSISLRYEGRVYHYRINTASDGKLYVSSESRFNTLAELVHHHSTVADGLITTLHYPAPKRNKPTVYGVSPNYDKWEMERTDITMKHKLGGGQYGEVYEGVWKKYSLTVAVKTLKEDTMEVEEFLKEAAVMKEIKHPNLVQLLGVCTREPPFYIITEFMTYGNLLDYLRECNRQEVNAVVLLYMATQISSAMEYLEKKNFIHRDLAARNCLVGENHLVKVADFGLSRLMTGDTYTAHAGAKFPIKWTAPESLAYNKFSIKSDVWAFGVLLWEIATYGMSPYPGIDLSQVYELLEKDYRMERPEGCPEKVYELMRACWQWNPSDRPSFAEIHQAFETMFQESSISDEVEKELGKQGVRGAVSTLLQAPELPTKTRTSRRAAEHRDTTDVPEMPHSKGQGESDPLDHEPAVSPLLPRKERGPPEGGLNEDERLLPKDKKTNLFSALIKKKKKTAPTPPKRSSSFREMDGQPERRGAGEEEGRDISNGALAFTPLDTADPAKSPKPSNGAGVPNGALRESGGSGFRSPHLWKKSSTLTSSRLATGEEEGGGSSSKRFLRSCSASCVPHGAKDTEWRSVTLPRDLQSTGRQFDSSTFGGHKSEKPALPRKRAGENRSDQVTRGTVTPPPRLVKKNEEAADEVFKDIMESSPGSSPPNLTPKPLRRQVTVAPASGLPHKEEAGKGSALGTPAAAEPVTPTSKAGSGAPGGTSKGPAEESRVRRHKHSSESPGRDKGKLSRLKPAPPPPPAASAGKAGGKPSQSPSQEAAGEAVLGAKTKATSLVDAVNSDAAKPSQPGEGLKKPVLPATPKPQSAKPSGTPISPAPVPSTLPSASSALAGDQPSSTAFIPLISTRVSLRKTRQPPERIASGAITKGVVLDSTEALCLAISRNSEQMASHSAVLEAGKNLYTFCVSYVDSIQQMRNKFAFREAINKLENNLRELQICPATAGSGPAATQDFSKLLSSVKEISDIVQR

Cc1ccc(NC(=O)c2cccc(C(F)(F)F)c2)cc1N1Cc2cnc(Nc3ccc(N4CCN(CCCOc5cccc6c5C(=O)N(C5CCC(=O)NC5=O)C6=O)CC4)nc3)nc2N(C)C1=O (centres unmarked) [DB0662]
logFC of ABL1 (P00519) ([1]; Experiment wp168): −0.7617
logFC ABL1 (P00519) ([1]; experiment wp168): −0.7617

Cc1ccc(NC(=O)c2cccc(C(F)(F)F)c2)cc1N1Cc2cnc(Nc3ccc(N4CCN(Cc5cn(CCCCCOc6cccc7c6C(=O)N(C6CCC(=O)NC6=O)C7=O)nn5)CC4)nc3)nc2N(C)C1=O (centres unmarked) [DB0646, N-(3-(7-((6-(4-((1-(5-((2-(2,6-Dioxopiperidin-3-yl)-1,3-dioxoisoindolin-4-yl)oxy)pentyl)-1H-1,2,3-triazol-4-yl)methyl)piperazin-1-v)pyridin-3-yl)amino)-1-methyl-2-oxo-1,4-dihydropyrimido[4,5-d]pyrimidin-3(2H)-yl)-4-methylphenyl)-3-(trifluoromethyl)benzamide]
logFC ([2]; PLK1 P53350, experiment wp152): −0.331
logFC PLK1 ([2]; PLK1 P53350, experiment wp152): −0.331

CC(C)(C)c1nc(-c2cccc(NS(=O)(=O)c3c(F)cccc3F)c2F)c(-c2ccnc(NCCOCCNC(=O)CCOCCOCCNc3cccc4c3C(=O)N(C3CCC(=O)NC3=O)C4=O)n2)s1 (centres unmarked) [DD.03.106]
logFC ([3]; experiment wp147, 4 uM): −0.4525
logFC PLK1 ([2]; PLK1 P53350, experiment wp147, 4 uM): −0.3533
logFC ([2]; PLK (P53350), experiment wp147, 4 uM): −0.3533

Cc1ncsc1-c1ccc([C@H](C)NC(=O)[C@@H]2C[C@@H](O)CN2C(=O)[C@@H](NC(=O)CCCCCN2CCN(c3ccc(Nc4ncc5scc(-c6cccc(NS(C)(=O)=O)c6)c5n4)cc3)CC2)C(C)(C)C)cc1 [RSS0680, (2S,4R)-1-((S)-3,3-Dimethyl-2-(6-(4-(4-((7-(3-(methylsulfonamido)phenyl)thieno[3,2-d]pyrimidin-2-yl)amino)phenyl)piperazin-1-yl)hexanamido)butanoyl)-4-hydroxy-N—((S)-1-(4-(4-methylthiazol-5yl)phenyl)ethyl)pyrrolidine-2-carboxamide]
logFC ([3]; experiment wp080): −0.4687

CCc1cnn2c(N(Cc3ccc(N)nc3)C(=O)CCOCCOCCOCCNC(=O)CNc3cccc4c3C(=O)N(C3CCC(=O)NC3=O)C4=O)cc(N3CCCC[C@H]3CCO)nc12 (some centres unmarked) [MFH.5.115.2]
logFC ([2]; PLK1 P53350, experiment wp076): −0.56
logFC PLK1 ([2]; PLK1 P53350, experiment wp076): −0.56

CC(=O)c1c(C)c2cnc(Nc3ccc(N4CCN(CCOCCOCCOCCNC(=O)COc5cccc6c5C(=O)N(C5CCC(=O)NC5=O)C6=O)CC4)cn3)nc2n(C2CCCC2)c1=O (centres unmarked) [BSJ.03.123]
logFC ([3]; experiment wp084): −0.3381

C=CCn1c(=O)c2cnc(Nc3ccc(N4CCN(CCCNc5cccc6c5C(=O)N(C5CCC(=O)NC5=O)C6=O)CC4)cc3)nc2n1-c1cccc(C(C)(C)O)n1 (centres unmarked) [ZNL.02.096]
logFC ([3]; experiment wp056): −0.3756

CC(C)(C)c1nc(-c2cccc(NS(=O)(=O)c3c(F)cccc3F)c2F)c(-c2ccnc(NCCOCCNC(=O)CCOCCOCCNc3cccc4c3CN(C3CCC(=O)NC3=O)C4=O)n2)s1 (centres unmarked) [DD.03.107]
logFC ([3]; experiment wp147, 1 uM): −0.3823
logFC ([3]; experiment wp147, 2 uM): −0.4234
logFC ([3]; experiment wp147, 4 uM): −0.4699

Cc1ncsc1-c1ccc([C@H](C)NC(=O)[C@@H]2C[C@@H](O)CN2C(=O)[C@@H](NC(=O)CCOCCOCCN2CCN(c3ccc(Nc4ncc(Cl)c(Nc5ccccc5S(=O)(=O)C(C)C)n4)cc3)CC2)C(C)(C)C)cc1 [FMF.06.098.1]
logFC ([4]; experiment wp114): −0.5773
logFC ([5]; experiment wp108): −0.814
logFC ([5]; experiment wp114): −0.4146
logFC ([5]; experiment wp131): −0.7898
logFC MAP4K3 ([5]; experiment wp108): −0.814
logFC MAP4K3 ([5]; experiment wp114): −0.4146
logFC MAP4K3 ([5]; experiment wp131): −0.7898

CC(C)S(=O)(=O)c1ccccc1Nc1nc(Nc2ccc(N3CCN(CCOCCNC(=O)CNc4cccc5c4C(=O)N(C4CCC(=O)NC4=O)C5=O)CC3)cc2)ncc1Cl (centres unmarked) [SK.3.91]
logFC ABL1 (P00519) ([1]; experiment wp160, 4 hr): −0.3545
logFC of ABL1 (P00519) ([1]; experiment wp160, 4 hr): −0.3545
logFC ([4]; experiment wp103): −0.4729
logFC ([4]; experiment wp107): −1.001
logFC ([4]; experiment wp114): −0.7881
logFC ([4]; experiment wp133, 4 hr): −0.4816
logFC [2, 6]: −0.5591
logFC PLK1 [2, 6]: −0.5591
logFC [2, 7]: −0.5804
logFC PLK1 [2, 7]: −0.5804
logFC [2, 8]: −0.7482
logFC PLK1 [2, 8]: −0.7482
logFC ([5]; experiment wp105): −0.571
logFC ([5]; experiment wp107): −0.8456
logFC ([5]; experiment wp133, 4 hr): −0.6321
logFC ([5]; experiment wp172): −0.7962
logFC MAP4K3 ([5]; experiment wp105): −0.571
logFC MAP4K3 ([5]; experiment wp107): −0.8456
logFC MAP4K3 ([5]; experiment wp133, 4 hr): −0.6321
logFC MAP4K3 ([5]; experiment wp172): −0.7962

Cc1ccc(NC(=O)c2cccc(C(F)(F)F)c2)cc1N1Cc2cnc(Nc3ccc(N4CCN(CCCCC(=O)N[C@H](C(=O)N5C[C@H](O)C[C@H]5C(=O)N[C@@H](C)c5ccc(-c6scnc6C)cc5)C(C)(C)C)CC4)nc3)nc2N(C)C1=O [DB1113]
logFC of ABL1 (P00519) ([1]; Experiment wp168): −1.014
logFC ABL1 (P00519) ([1]; experiment wp168): −1.014
logFC ([5]; experiment wp168): −1.385
logFC MAP4K3 ([5]; experiment wp168): −1.385

O=C1CCC(N2C(=O)c3cccc(NCCCCCCCCN4CCC(NC(=O)c5[nH]ncc5NC(=O)c5c(Cl)cccc5Cl)CC4)c3C2=O)C(=O)N1 (centres unmarked) [MFH.5.126.1]
logFC ([2]; PLK1 P53350, experiment wp076): −1.071
logFC PLK1 ([2]; PLK1 P53350, experiment wp076): −1.071

CC(C)S(=O)(=O)c1ccccc1Nc1nc(Nc2ccc(N3CCN(CCOCCOCCNC(=O)CNc4cccc5c4C(=O)N(C4CCC(=O)NC4=O)C5=O)CC3)cc2)ncc1Cl (centres unmarked) [TL12.186]
logFC ([4]; experiment wp131): −0.6311
logFC ([5]; experiment wp131): −0.6275
logFC ([5]; experiment wp137): −0.3997
logFC MAP4K3 ([5]; experiment wp131): −0.6275
logFC MAP4K3 ([5]; experiment wp137): −0.3997
